Results reported in ChEMBL document CHEMBL6092171, “Discovery of Propionic Acid Derivatives with a 5-THIQ Core as Potent and Orally Bioavailable Keap1-Nrf2 Protein-Protein Interaction Inhibitors for Acute Kidney Injury” (J Med Chem, 2024).

Legend:
Type in all cases: ADME, organism-based
[1] = AUC (0 to infinity) in Sprague-Dawley rat at 1 mg/kg, iv measured upto 24 hrs by LC-MS/MS analysis; details: in vivo
[2] = MRT (0 to infinity) in Sprague-Dawley rat at 1 mg/kg, iv measured upto 24 hrs by LC-MS/MS analysis; details: in vivo
[3] = Cmax in Sprague-Dawley rat at 5 mg/kg, po measured upto 24 hrs by LC-MS/MS analysis; details: in vivo
[4] = Volume of distribution in Sprague-Dawley rat at 1 mg/kg, iv measured upto 24 hrs by LC-MS/MS analysis; details: in vivo, read-out: Vz
[5] = Tmax in Sprague-Dawley rat at 5 mg/kg, po measured upto 24 hrs by LC-MS/MS analysis; details: in vivo
[6] = AUC (0 to t) in Sprague-Dawley rat at 1 mg/kg, iv measured upto 24 hrs by LC-MS/MS analysis; details: in vivo
[7] = AUC (0 to infinity) in Sprague-Dawley rat at 5 mg/kg, po measured upto 24 hrs by LC-MS/MS analysis; details: in vivo
[8] = MRT (0 to t) in Sprague-Dawley rat at 1 mg/kg, iv measured upto 24 hrs by LC-MS/MS analysis; details: in vivo
[9] = MRT (0 to infinity) in Sprague-Dawley rat at 5 mg/kg, po measured upto 24 hrs by LC-MS/MS analysis; details: in vivo
[10] = Oral bioavailability in Sprague-Dawley rat at 5 mg/kg measured upto 24 hrs by LC-MS/MS analysis; details: in vivo
[11] = Apparent clearance during terminal phase in Sprague-Dawley rat at 5 mg/kg, po measured upto 24 hrs by LC-MS/MS analysis; details: in vivo
[12] = AUC (0 to t) in Sprague-Dawley rat at 5 mg/kg, po measured upto 24 hrs by LC-MS/MS analysis; details: in vivo
[13] = Volume of distribution in Sprague-Dawley rat at 5 mg/kg, po measured upto 24 hrs by LC-MS/MS analysis; details: in vivo
[14] = Cmax in Sprague-Dawley rat at 1 mg/kg, iv measured upto 24 hrs by LC-MS/MS analysis; details: in vivo
[15] = Half life in Sprague-Dawley rat at 1 mg/kg, iv measured upto 24 hrs by LC-MS/MS analysis; details: in vivo
[16] = Half life in Sprague-Dawley rat at 5 mg/kg, po measured upto 24 hrs by LC-MS/MS analysis; details: in vivo
[17] = MRT (0 to t) in Sprague-Dawley rat at 5 mg/kg, po measured upto 24 hrs by LC-MS/MS analysis; details: in vivo
[18] = Drug distribution in Sprague-Dawley rat kidney at 5 mg/kg, po; details: in vivo

Compound: COc1cc(C(CC(=O)O)c2cccc3c2CCN(C(=O)c2ccc(OC(C)C)cc2Cl)C3)cc2nnn(C)c12 (stereo not drawn)
- AUC(0-inf) [1]: 268 ng·h/mL
- MRT inf [2]: 0.44 h
- Cmax [3]: 186 ng/mL
- Vd [4]: 6.49 L/kg
- Tmax [5]: 0.29 h
- AUC(0-t) at 24 h [6]: 267 ng·h/mL
- AUC(0-inf) [7]: 266 ng·h/mL
- MRT last at 24 h [8]: 0.39 h
- MRT inf [9]: 1.85 h
- bioavailability [10]: 20%
- CL/F [11]: 383 mL/min/kg
- AUC(0-t) at 24 h [12]: 265 ng·h/mL
- Vz [13]: 46.52 L/kg
- Cmax [14]: 1640 ng/mL
- half-life [15]: 1.19 h
- half-life [16]: 1.36 h
- MRT last at 24 h [17]: 1.77 h
- Drug uptake [18]: Active
